According to patent publication US5424312A, “Aminoalkyl-substituted 2-amino-1,3,4-thiadiazoles, the preparation and use thereof” (BASF Aktiengesellschaft, priority 1991, dated 1995):
Counter-ions that a name gives are not always drawn.

Each compound was assayed against T1, dopamine D2 receptor (Rattus norvegicus, UniProt P61169) (assay: Receptor binding assay with 3H-ADTN on rat striatal membranes: affinity for the dopamine D2 receptor). Conditions: not given.
T1 construct: Striata from rats (Sprague Dawley, Charles River) were homogenized immediately after removal; from tissue; host or cells: rat striatum (Sprague Dawley, Charles River), membranes
T1 sequence (P61169 whole entry): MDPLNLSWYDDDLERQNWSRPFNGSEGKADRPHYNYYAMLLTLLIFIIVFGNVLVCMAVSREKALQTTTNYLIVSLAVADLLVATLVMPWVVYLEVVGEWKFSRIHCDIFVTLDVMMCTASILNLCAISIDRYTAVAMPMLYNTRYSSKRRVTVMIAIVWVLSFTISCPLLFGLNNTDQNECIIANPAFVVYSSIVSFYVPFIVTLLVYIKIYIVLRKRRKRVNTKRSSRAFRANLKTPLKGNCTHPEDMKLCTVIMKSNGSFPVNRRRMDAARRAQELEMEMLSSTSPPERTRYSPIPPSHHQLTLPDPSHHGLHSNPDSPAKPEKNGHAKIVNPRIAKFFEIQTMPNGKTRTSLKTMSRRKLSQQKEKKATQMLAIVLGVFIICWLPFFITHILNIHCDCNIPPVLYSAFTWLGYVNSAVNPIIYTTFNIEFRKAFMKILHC
Set-up: species or system rat (Sprague Dawley)
Experimental: The effects of the novel compounds can be shown in the receptor binding assay as follows:
Striata from rats (Sprague Dawley, Charles River) were homogenized immediately after removal in 0.32M sucrose solution (0° C.). The homogenate was filtered through gauze, the filtrate was centrifuged at 1000×g (5 min at 4° C.) and the resulting supernatant was centrifuged at 40000×g (4C 10 min) The residue (membranes) was taken up in incubation buffer (50 mM tris-HCl, 1 mM MgCl2 and 0.1% ascorbic acid, pH 7.4) and incubated at 37° C. for 20 min. The residue was subsequently washed 2× with incubation buffer by resuspension and recentrifugation. The membranes were frozen in portions in liquid nitrogen.
The assay mixtures (1 ml) were composed of membranes (380 μg of protein), 1 nM ^3 H-ADTN (NEN, Dreieich Germany, specific radioactivity 1.4 TBq/mmol) and 0.1 μM SCH 23390 (total binding) or a) with the addition of 50 nM spiperone (non-specific binding) or b) with test substance. The mixtures were prepared in triplicate.
After the incubation (40 min at 25° C.) the mixtures were filtered through glass fiber filters (Whatman GF/B) and briefly washed with ice-cold washing buffer (tris-HCl, pH 7.4). The radioactivity retained on the filters was determined by liquid scintillation counting. The non-specific binding comprised about 40-50% of the total binding.
The evaluation of the competition plots and the determination of the dissociation constant took place by iterative non-linear regression analysis based on the "ligand" program (Muson and Rodbard: Anal. Biochem. 107 (1980) 220).
Affinity of the test substances for the dopamine D2 receptor
For Nc1nnc(CCCCCN2CC=C(c3ccccc3)CC2)s1 [Example 19, fumarate], the Ki was 10 nM.
Work on Nc1nnc(CCCCN2CC=C(c3ccccc3)CC2)s1 [Example 18, 2-Amino-5-[4-(1,2,3,6-tetrahydro-4-phenylpyridinyl)-butyl]-1,3,4-thiadiazole] yielded a Ki of 5 nM.

Same assay, conditions: rat striatum membranes; 1 nM 3H-ADTN; 0.1 μM SCH 23390; non-specific binding with 50 nM spiperone; 40 min at 25° C.; read-out: Affinity of the test substances for the dopamine D2 receptor, Ki
Nc1nnc(CCN2CCC(c3ccccc3)CC2)s1 [Example 24, 2-Amino-5-[2-(4-phenylpiperidinyl)ethyl]-1,3,4-thiadiazole] showed a Ki of 37 nM.
In the case of Nc1nnc(CCCN2CC=C(c3ccccc3)CC2)s1 [Example 10, 2-Amino-5-[3-(1,2,3,6-tetrahydro-4-phenylpyridyl)propyl]-1,3,4-thiadiazolehydrochloride], the Ki is reported as 32 nM.
Compound Nc1nnc(CCN2CC=C(c3ccc(Cl)cc3)CC2)s1 [Example 7, 2-Amino-5-[2-(4-(4-chlorophenyl)-l,2,3,6-tetrahydropyridyl)ethyl]-1,3,4-thiadiazole dihydrochloride] has a Ki of 30 nM.
Nc1nnc(CCCCN2CCN(c3ccccn3)CC2)s1 [Example 21, 2-Amino-5-[4-(4-pyridin-2-ylpiperazinyl)butyl]-1,3,4-thiadiazole] gave a Ki of 44 nM.
Compound Nc1nnc(CCN2CC=C(c3ccccc3)CC2)s1 [Example 4, 2-Amino-5-[2-(1,2,3,6-tetrahydro-4-phenylpyridyl)-ethyl]-1,3,4-thiadiazolehydrochloride] has a Ki of 30 nM.
